In brackets after ≈: the same amount, converted by molar mass.
What was measured:
[1] = system: Clostridium acetobutylicum ATCC 824; assay: MIC, agar incorporation method, anaerobic; assay type: cell-based; conditions: ATCC824, 48 h, 48 hours at 35° C., GasPak Anaerobic Jar, read-out: Minimal Inhibitory Concentration
Outline: (§1)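 Two-fold compound dilutions (100 to 3.1, sometimes to 0.125 mcg/ml) in DMF were incorporated into Eugon agar. Plates were spot-inoculated with about 1,000,000 cells/ml suspensions, with anaerobes pre-grown in thioglycollate medium. Anaerobes were incubated 48 h at 35 °C in a GasPak jar, and MIC was the lowest concentration visibly inhibiting growth.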

[2] = system: Propionobacterium acnes ATCC 6919; assay: MIC, agar incorporation method, anaerobic; assay type: cell-based; conditions: 48 hours at 35° C., GasPak Anaerobic Jar, read-out: Minimal Inhibitory Concentration
Outline: as §1

[3] = system: Pseudomonas aeruginosa ATCC 14502; assay: MIC, agar incorporation method; assay type: cell-based; conditions: ATCC14502, 32° C., 24 hours, read-out: Minimal Inhibitory Concentration
Outline: (§2)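 Read-out is the visually scored lowest compound level preventing growth, taken at 24 hours for bacteria and 48–72 hours for dermatophytes and molds. Compounds sat in Eugon agar at 100 down to 3.1 mcg/ml, inoculum 1,000,000 cells or spores per ml, incubation 32° C.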

T. rubrum ATCC 10218 = assay: MIC, agar incorporation method; assay type: cell-based; conditions: Trichophyton rubrum, ATCC10218; 32° C., 48-72 hours; read-out: Minimal Inhibitory Concentration
Outline: as §2

[4] = system: Sarcina subflava ATCC 7468; assay: MIC, agar incorporation method; assay type: cell-based; conditions: ATCC7468, 32° C., 24 hours, read-out: Minimal Inhibitory Concentration
Outline: as §2

[5] = system: Candida albicans ATCC 10231; assay: MIC, agar incorporation method; assay type: cell-based; conditions: ATCC10231, C. albicans ATCC 10231, 32° C., 24 hours, read-out: Minimal Inhibitory Concentration
Outline: as §2

C. tropicalis NRRL Y1410 = assay: MIC, agar incorporation method; assay type: cell-based; conditions: Candida tropicalis, NRRLY1410; 32° C., 24 hours; read-out: Minimal Inhibitory Concentration
Outline: as §2

[6] = system: Aspergillus niger ATCC 16404; assay: MIC, agar incorporation method; assay type: cell-based; conditions: ATCC16404, 32° C., 48-72 hours, read-out: Minimal Inhibitory Concentration
Outline: as §2

[7] = system: Trichophyton mentagrophytes ATCC 4807; assay: MIC, agar incorporation method; assay type: cell-based; conditions: ATCC4807, 32° C., 48-72 hours, read-out: Minimal Inhibitory Concentration
Outline: as §2

T. mentagrophytes CDC = assay: MIC, agar incorporation method; assay type: cell-based; conditions: Trichophyton mentagrophytes, 32° C., 48-72 hours, read-out: Minimal Inhibitory Concentration
Outline: as §2

[8] = system: Staphylococcus aureus ATCC 6538; assay: MIC, agar incorporation method; assay type: cell-based; conditions: S. aureus ATCC 6538, 32° C., 24 hours; for MIC: Staphylococcus aureus, ATCC6538, read-out: Minimal Inhibitory Concentration
Outline: as §2

A. fumigatus NRRL 163 = assay: MIC, agar incorporation method; assay type: cell-based; conditions: 32° C., 48-72 hours; for MIC: Aspergillus fumigatus, NRRL163, NRRL 163, read-out: Minimal Inhibitory Concentration
Outline: as §2

C. albicans NRRL Y-477 = assay: MIC, agar incorporation method; assay type: cell-based; conditions: Candida albicans, NRRLY477, 32° C., 24 hours, read-out: Minimal Inhibitory Concentration
Outline: as §2

[9] = system: Escherichia coli ATCC 8739; assay: MIC, agar incorporation method; assay type: cell-based; conditions: ATCC8739, 32° C., 24 hours, read-out: Minimal Inhibitory Concentration
Outline: as §2

C. krusei VM 29B = assay: MIC, agar incorporation method; assay type: cell-based; conditions: Pichia kudriavzevii, VM29B; 32° C., 24 hours; read-out: Minimal Inhibitory Concentration
Outline: as §2

C. guillermondii VM 42 = assay: MIC, agar incorporation method; assay type: cell-based; conditions: 32° C., 24 hours; read-out: Minimal Inhibitory Concentration
Outline: as §2

A. fumigatus NRRL 165 = assay: MIC, agar incorporation method; assay type: cell-based; conditions: Aspergillus fumigatus, NRRL165, 32° C., 48-72 hours, read-out: Minimal Inhibitory Concentration
Outline: as §2

T. mentagrophytes TM-2 = assay: MIC, agar incorporation method; assay type: cell-based; conditions: Trichophyton mentagrophytes, TM2, 32° C., 48-72 hours, read-out: Minimal Inhibitory Concentration
Outline: as §2

[10] = system: Streptococcus faecalis ATCC 10541; assay: MIC, agar incorporation method; assay type: cell-based; conditions: Enterococcus faecalis, ATCC10541; 32° C., 24 hours; read-out: Minimal Inhibitory Concentration
Outline: as §2

[11] = system: Proteus vulgaris NRRL B123; assay: MIC, agar incorporation method; assay type: cell-based; conditions: NRRLB123, 32° C., 24 hours, read-out: Minimal Inhibitory Concentration
Outline: as §2

[12] = system: Microsporum gypseum ATCC 14683; assay: MIC, agar incorporation method; assay type: cell-based; conditions: 48-72 hours; for MIC: Nannizzia gypsea, ATCC14683, 32° C., read-out: Minimal Inhibitory Concentration
Outline: as §2

S. aureus NRRL B2747 [13] = assay: MIC, agar incorporation method; assay type: cell-based, Staphylococcus aureus; conditions: 24 hours; for MIC: Staphylococcus aureus, NRRLB2747, 32° C., read-out: Minimal Inhibitory Concentration
Outline: as §2

[14] = system: Clostridium sporogenes ATCC 11437; assay: MIC, agar incorporation method, anaerobic; assay type: cell-based; conditions: ATCC11437, 48 hours at 35° C., GasPak Anaerobic Jar, read-out: Minimal Inhibitory Concentration
Outline: as §1

S. aureus NRRL B2747 [15] = assay: MIC, agar incorporation method, anaerobic; assay type: cell-based; conditions: Staphylococcus aureus, NRRLB2747, 48 hours at 35° C., GasPak Anaerobic Jar, read-out: Minimal Inhibitory Concentration
Outline: as §1

[16] = system: Bacteriodides fragilis ATCC 8482; assay: MIC, agar incorporation method, anaerobic; assay type: cell-based; conditions: 48 hours at 35° C., GasPak Anaerobic Jar, read-out: Minimal Inhibitory Concentration
Outline: as §1

T. tonsurans ATCC 10217 = assay: MIC, agar incorporation method; assay type: cell-based; conditions: Trichophyton tonsurans, ATCC10217; 32° C., 48-72 hours; read-out: Minimal Inhibitory Concentration
Outline: as §2

| Compound | MIC [1] | MIC [2] | MIC [3] | MIC (T. rubrum ATCC 10218) | MIC [4] | MIC [5] | MIC (C. tropicalis NRRL Y1410) | MIC [6] | MIC [7] | MIC (T. mentagrophytes CDC) | MIC [8] | MIC (A. fumigatus NRRL 163) | MIC (C. albicans NRRL Y-477) | MIC [9] | MIC (C. krusei VM 29B) | MIC (C. guillermondii VM 42) | MIC (T. mentagrophytes TM-2) | MIC [10] | MIC [11] | MIC (S. aureus NRRL B2747 [13]) | further results |
| --- | --- | --- | --- | --- | --- | --- | --- | --- | --- | --- | --- | --- | --- | --- | --- | --- | --- | --- | --- | --- | --- |
| C=C1C(=O)c2ccccc2OC1c1ccc(C)cc1 (stereo not shown) [Ex. 13, 4'-methyl-3-methylene flavanone] | ≤ 100 µg/mL | ≤ 100 µg/mL | > 100 µg/mL | ≤ 3.1 µg/mL | 12.5 µg/mL (≈ 49.9 µM) | 25 µg/mL (≈ 99.9 µM) | 50 µg/mL (≈ 200 µM) | 50 µg/mL (≈ 200 µM) | 6.2 µg/mL (≈ 24.8 µM) | 6.2 µg/mL (≈ 24.8 µM) | 6.2 µg/mL (≈ 24.8 µM) | 12.5 µg/mL (≈ 49.9 µM) | 25 µg/mL (≈ 99.9 µM) | > 100 µg/mL | 25 µg/mL (≈ 99.9 µM) | 50 µg/mL (≈ 200 µM) | 6.2 µg/mL (≈ 24.8 µM) | 50 µg/mL (≈ 200 µM) | > 100 µg/mL | 6.2 µg/mL (≈ 24.8 µM) | MIC (A. fumigatus NRRL 165): 50 µg/mL (≈ 200 µM); MIC [12]: 6.2 µg/mL (≈ 24.8 µM) |
| C=C1C(=O)c2ccccc2OC1(c1ccccc1)c1ccccc1 [Ex. 20, 3-methylene-2-phenyl flavanone] | 1 µg/mL (≈ 3.2 µM) | 0.78 to 3.1 µg/mL (≈ 2.5 to 9.92 µM) | > 100 µg/mL | > 100 µg/mL | 1 µg/mL (≈ 3.2 µM) | > 100 µg/mL | > 100 µg/mL | > 100 µg/mL | > 100 µg/mL | > 100 µg/mL | 0.5 µg/mL (≈ 1.6 µM) | > 100 µg/mL | > 100 µg/mL | > 100 µg/mL | > 100 µg/mL | > 100 µg/mL | > 100 µg/mL | 0.78 to 1 µg/mL (≈ 2.5 to 3.2 µM) | > 100 µg/mL | 0.25 to 0.5 µg/mL (≈ 0.8 to 1.6 µM) | MIC [14]: 0.5 µg/mL (≈ 1.6 µM); MIC (S. aureus NRRL B2747 [15]): 0.25 to 1 µg/mL (≈ 0.8 to 3.2 µM); MIC [16]: 0.125 µg/mL (≈ 0.4 µM); MIC (T. tonsurans ATCC 10217): > 100 µg/mL; MIC (A. fumigatus NRRL 165): > 100 µg/mL |
| CN(C)CC1C(=O)c2ccccc2OC1c1ccccc1 (stereo not shown) [MA 1347, 3-(dimethylaminomethyl)flavanone, reference compound] | ≤ 100 µg/mL | 12.5 µg/mL (≈ 44.4 µM) | > 100 µg/mL | 3.1 to 12.5 µg/mL (≈ 11 to 44.4 µM) | 12.5 µg/mL (≈ 44.4 µM) | 25 to 50 µg/mL (≈ 88.9 to 178 µM) | 50 to 100 µg/mL (≈ 178 to 355 µM) | 50 µg/mL (≈ 178 µM) | 6.2 to 12.5 µg/mL (≈ 22 to 44.4 µM) | 6.2 to 12.5 µg/mL (≈ 22 to 44.4 µM) | 6.2 to 12.5 µg/mL (≈ 22 to 44.4 µM) | 6.2 to 25 µg/mL (≈ 22 to 88.9 µM) | 25 µg/mL (≈ 88.9 µM) | > 100 µg/mL | 12.5 to 25 µg/mL (≈ 44.4 to 88.9 µM) | 50 to 100 µg/mL (≈ 178 to 355 µM) | 6.2 to 12.5 µg/mL (≈ 22 to 44.4 µM) | 50 µg/mL (≈ 178 µM) | > 100 µg/mL | 6.2 to 12.5 µg/mL (≈ 22 to 44.4 µM) | MIC [14]: 6.2 µg/mL (≈ 22 µM); MIC (S. aureus NRRL B2747 [15]): 25 µg/mL (≈ 88.9 µM); MIC [16]: 3.1 µg/mL (≈ 11 µM); MIC (T. tonsurans ATCC 10217): 6.2 µg/mL (≈ 22 µM); Minimal Inhibitory Concentration [8]: 6.2 to 12.5 µg/mL; Minimal Inhibitory Concentration (A. fumigatus NRRL 163; NRRL 163): 5.2 to 25 µg/mL; Minimal Inhibitory Concentration ([12]; 32° C.): 6.12 to 12.5 µg/mL; MIC [12]: 6.2 to 12.5 µg/mL (≈ 22 to 44.4 µM); Minimal Inhibitory Concentration (S. aureus NRRL B2747 [13]; 32° C.): 6.2 to 12.5 µg/mL |

From US4241069A, “3-Methylene flavanones and 3-methylene chromanones” (Miles Laboratories, Inc., priority 1979, dated 1980)
